Measured values taken from PMC5557808 (Nature Communications, 2017).
Where a SMILES comes first, the peptide text is derived from it. [ ]: non-standard residue; d: D form. The star is where a group is joined. X1 = CC[N+](CC)(CC(=O)Nc1c(C)cccc1C)Cc1cccc(C(=O)*)c1; Aha = [N-]=[N+]=NCC[C@H](N)C(=O)O

Target: T1, Leucine aminopeptidase (AP) (Sus scrofa, UniProt P15145)
T1 construct: Leucine aminopeptidase (AP; Mw = 280 kDa) from porcine kidney; purchased Sigma-Aldrich Chemie, Schnelldorf, Germany; host or cells: porcine kidney (tissue-derived)
T1 sequence (P15145 1-963): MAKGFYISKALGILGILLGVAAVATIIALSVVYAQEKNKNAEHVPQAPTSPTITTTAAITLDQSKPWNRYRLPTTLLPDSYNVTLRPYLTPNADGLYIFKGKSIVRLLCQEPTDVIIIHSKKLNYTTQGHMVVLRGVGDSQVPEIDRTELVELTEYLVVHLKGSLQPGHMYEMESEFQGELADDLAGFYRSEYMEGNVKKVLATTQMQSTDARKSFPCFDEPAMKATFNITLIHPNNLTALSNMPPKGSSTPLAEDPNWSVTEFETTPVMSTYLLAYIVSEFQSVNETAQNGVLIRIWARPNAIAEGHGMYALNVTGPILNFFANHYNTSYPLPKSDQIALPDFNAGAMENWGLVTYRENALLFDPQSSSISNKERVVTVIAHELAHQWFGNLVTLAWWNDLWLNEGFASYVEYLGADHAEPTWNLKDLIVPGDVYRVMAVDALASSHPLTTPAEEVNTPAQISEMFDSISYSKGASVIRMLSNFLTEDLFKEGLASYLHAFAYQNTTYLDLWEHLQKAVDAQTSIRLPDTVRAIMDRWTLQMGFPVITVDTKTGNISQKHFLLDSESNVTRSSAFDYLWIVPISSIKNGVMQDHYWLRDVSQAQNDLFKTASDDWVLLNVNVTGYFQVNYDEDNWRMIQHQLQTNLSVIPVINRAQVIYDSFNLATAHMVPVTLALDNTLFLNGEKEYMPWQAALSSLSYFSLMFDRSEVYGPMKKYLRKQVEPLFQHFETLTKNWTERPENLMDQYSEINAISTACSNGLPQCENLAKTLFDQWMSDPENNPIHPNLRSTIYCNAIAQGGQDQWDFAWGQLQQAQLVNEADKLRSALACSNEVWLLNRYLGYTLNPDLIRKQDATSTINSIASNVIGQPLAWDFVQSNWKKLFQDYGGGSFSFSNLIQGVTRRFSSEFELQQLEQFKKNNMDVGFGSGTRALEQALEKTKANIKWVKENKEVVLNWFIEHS
Test: Aminopeptidase (AP) incubation
Assay type: biochemical, porcine
Conditions: AP 3.1 nM (0.87 µg/mL), 30 min, 37 °C, after 22 h with 1800 ng/mL MMP-8; LC-MS
Method: Leucine aminopeptidase (AP; Mw = 280 kDa) from porcine kidney dissolved in AP buffer (50 mM Tris-HCl, 1 mM CaCl2, and 150 mM NaCl at pH 7.0) was used. L-leucine-p-nitroanilide (0.125 mg/mL) was used as control substrate. For AP digestion, 1 mg of purified lyophilized peptide was diluted in 2 mL AP buffer resulting in a final concentration of 0.5 mg/mL substrate. To evaluate the impact of AP concentration on peptide cleavage, AP was added at concentrations of 0 (negative control), 0.87, 8.7, 39, and 78 µg/mL and the samples were incubated at 37 °C for 1 h. For analysis of the AP incubation time, an AP concentration of 0.87 µg/mL was used and analyzed after 10, 20 min and 1, 2, 3, and 6 h. To stop the enzyme activity, samples were kept at 95 °C for 15 min. Afterwards, HPLC analyses were performed (as described in the Supplementary Information) to analyze the relative decrease of the main peak as compared to the negative control. Further details are given in the Supplementary Methods.
MMP -9) in a concentration of 0.4 ng/µL (50 µL) were mixed with MMP -8 buffer (37 µL), detection enz yme (5 µL) and substrate (8µL; all fro m Q uic kZ yme® ). The acti vi t y was meas ur ed for 12 hours in inter vals of 10 minutes. […]
Aminopeptidase (AP) incubation
Leucine A minopeptidase (AP; M w = 280 kD a) from porcine kidney dissolved in AP buffer (50 mM Tris-HCl, 1 mM CaCl2 and 150 mM NaCl at pH 7.0) was used. L-leu cin e-p-nitroan ilide (0.125mg/ mL) was used as control substr at e. […] Fo r anal ysis of the impact of AP incubation time, the identical conditions were used (AP concentration of 0.87 µg / mL (and analyzed after 10, 20 minutes and 1, 2, 3 and 6 hours ). To stop the enzymatic activit y, sa mp les wer e kept at 95 °C for 15 minutes. A fterwards, H PLC analys es were p erformed (as descr ibed) to an al yze th e relative d ecr eas e of the ma i n pea k as co mp ared to the negative control (see […]
V(B)/(V(A)+V(B)) = 5 % to 90 % over 10 min, V(B)/(V(A)+V(B)) = 90 % for 5 min, V(B)/(V(A)+V(B)) = 90 % to 5 % over 3 min. […] UV detection was measured at 254 nm. […]

CC[C@H](C)[C@H](NC(=O)CNC(=O)[C@H](CCC(N)=O)NC(=O)[C@@H]1CCCN1C(=O)CNC(=O)c1cccc(C[N+](CC)(CC)CC(=O)Nc2c(C)cccc2C)c1)C(=O)N[C@@H](C)C(=O)NCC(=O)N[C@@H](CCC(N)=O)C(=O)N[C@@H](CCN=[N+]=[N-])C(=O)N[C@@H](CCC(N)=O)C(=O)O [ID #1c] (X1-GPQGIAGQ[Aha]Q-OH)
effect of additional AP incubation after complete MMP-8 cleavage: no difference
